Measured values as given in the supplement of paper PMC8967900.

Assays:
Experiment in all cases: selective drug sensitivity score (sDSS, relative to normal bone marrow) (sDSS (score)); higher = more potent and effective on the cell line relative to normal bone marrow cells
Conditions in all cases: 72 h
[1] = test system: 380
[2] = test system: ALL-PO
[3] = test system: ALL-SIL
[4] = test system: CCRF-HSB2
[5] = test system: COG-LL-317
[6] = test system: COG-LL-394h
[7] = test system: COG-LL-402h
[8] = test system: HPB-ALL
[9] = test system: KASUMI-2
[10] = test system: LC4-1
[11] = test system: MHH-CALL-2
[12] = test system: MOLT-16
[13] = test system: MOLT-4
[14] = test system: PF-382
[15] = test system: RCH-ACV
[16] = test system: REH
[17] = test system: SEM cells
[18] = test system: SUP-B15
[19] = test system: TANOUE
[20] = test system: TMD5
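Also: ALL cell lines in 384-well plates, five doses spanning 10,000-fold, each plate scaled between vehicle and 100 µmol/L benzalkonium chloride controls, sDSS an adapted area-under-curve metric.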

Row | SMILES | selective drug sensitivity score [1] | selective drug sensitivity score [2] | selective drug sensitivity score [3] | selective drug sensitivity score [4] | selective drug sensitivity score [5] | selective drug sensitivity score [6] | selective drug sensitivity score [7] | selective drug sensitivity score [8] | selective drug sensitivity score [9] | selective drug sensitivity score [10] | selective drug sensitivity score [11] | selective drug sensitivity score [12] | selective drug sensitivity score [13] | selective drug sensitivity score [14] | selective drug sensitivity score [15] | selective drug sensitivity score [16] | selective drug sensitivity score [17] | selective drug sensitivity score [18] | selective drug sensitivity score [19] | selective drug sensitivity score [20]
1 | CN1CCC(COc2cnc(-c3cccc(Cn4nc(-c5cccc(C#N)c5)ccc4=O)c3)nc2)CC1 [Tepotinib] (top concentration 1000 nM) | -0.08 | -0.08 | -0.08 | 0.02 | 0.52 | -0.08 | -0.08 | -0.08 | 2.02 | 4.62 | -0.08 | -0.08 | -0.08 | -0.08 | 0.42 | -0.08 | 0.22 | -0.08 | -0.08 | -0.08
2 | COc1cc2ncnc(Nc3cccc(Cl)c3F)c2cc1OC(=O)N1CCN(C)C[C@H]1C [AZD3759] (top concentration 1000 nM) | -0.04 | 1.26 | 5.76 | -0.04 | -0.04 | -0.04 | -0.04 | -0.04 | -0.04 | -0.04 | 1.56 | -0.04 | -0.04 | -0.04 | -0.04 | 0.66 | -0.04 | -0.04 | -0.04 | 0.06
3 | CN(CC(=O)N(Cc1ccc(C2CCCCC2)cc1)c1ccc(C(=O)O)cc1)S(=O)(=O)c1c(F)c(F)c(F)c(F)c1F [SH-4-54] (top concentration 25000 nM) | 6.06 | -6.04 | -3.84 | -5.04 | -5.44 | -5.34 | -2.14 | -6.84 | -2.84 | -3.34 | -7.24 | -6.74 | -6.04 | -3.74 | -2.24 | -5.04 | -6.14 | -5.94 | -4.04 | -5.94
4 | C/C(=C\c1csc(C)n1)[C@@H]1C[C@@H]2O[C@]2(C)CCC[C@H](C)[C@H](O)[C@@H](C)C(=O)C(C)(C)[C@@H](O)CC(=O)N1 [Ixabepilone] (top concentration 1000 nM) | 2.08 | 2.28 | 2.98 | 3.18 | 2.98 | 2.18 | 1.58 | 7.08 | 1.48 | 5.08 | 1.88 | 4.68 | 3.98 | 1.68 | 6.78 | 3.78 | 3.58 | 5.08 | -1.92 | 0.28
5 | CC[C@]12C=CCN3CC[C@@]4(c5cc([C@@]6(C(=O)OC)C[C@@H]7C[C@@H](C(C)(F)F)CN(Cc8c6[nH]c6ccccc86)C7)c(OC)cc5N(C)[C@H]4[C@@](O)(C(=O)OC)[C@@H]1OC(C)=O)[C@@H]32 [Vinflunine] (top concentration 1000 nM) | 5.98 | 1.68 | 10.3 | 4.48 | 3.88 | 2.38 | 2.78 | 6.18 | 5.68 | 4.48 | 2.88 | 3.98 | 3.48 | 2.68 | 3.98 | 4.18 | 6.28 | 3.48 | -1.32 | 0.28
6 | O=C(O)CNC(=O)c1c(O)c2ccccc2n(Cc2ccccc2)c1=O [IOX-2] (top concentration 50000 nM) | 8.98 | -0.22 | -0.82 | -0.82 | -0.82 | -0.82 | -0.82 | 0.68 | 3.38 | -0.82 | 1.78 | -0.82 | -0.82 | -0.82 | 1.18 | -0.82 | -0.82 | -0.82 | -0.82 | -0.82
7 | Cc1cc(C)c(CNC(=O)c2cc(-c3ccc(CN4CCOCC4)cc3)cc3c2cnn3C2CCCC2)c(=O)[nH]1 [EPZ-5687] (top concentration 10000 nM) | -0.36 | 0.24 | -0.36 | -0.06 | -0.36 | -0.36 | -0.36 | -0.36 | -0.36 | -0.36 | 5.14 | -0.36 | -0.36 | -0.36 | -0.36 | 6.64 | -0.36 | -0.36 | -0.36 | 5.74
8 | Cc1cc(F)c(C(=O)Nc2cccc(-c3nncn3C(C)C)n2)cc1-n1cnc(C2CC2)c1 [Selonsertib] (top concentration 1000 nM) | 1 | 0 | 0 | 0 | 0 | 0 | 0 | 0 | 0 | 0 | 11.5 | 0 | 0 | 0 | 0.5 | 0 | 0 | 0 | 0 | 6.7
9 | Cc1nc(C(=O)NCC(=O)O)c(O)c2ccc(Oc3ccccc3)cc12 [Roxadustat] (top concentration 10000 nM) | 7.48 | -0.82 | -1.12 | -0.52 | -1.12 | -1.12 | -1.12 | 5.28 | -0.92 | -1.12 | -1.12 | 0.88 | -1.12 | -0.52 | -1.12 | -1.12 | -1.12 | -1.12 | -1.12 | -1.12
